Reference: patent US8716231B2, “Use of benzo-fused heterocycle sulfamide derivatives for the treatment of pain” (Janssen Pharmaceutica NV, priority 2005, dated 2014)
Several values for one entry are separate records, joined by “and”; a condition that tells them apart may be missing. Identical values can stand only once.

Assays:
[1] = tested on: formalin-induced hyperalgesia (paw licking); experiment: Formalin-Induced Hyperalgesia Model; format: in vivo, CF-1 mice; settings: Mus musculus; i.p., 2 hours before formalin; 95% CI range 53.6-225 mg/kg; read-out: median effective dose (ED50) for a 50% or greater reduction in AUC, secondary phase (phase 2, inflammatory)
Procedure: Adult male CF-1 mice weighing 2-0 g were obtained from Charles River (Wilmington, Mass.). All animals were house on a 12:12 light:dark cycle and permitted free access to both food and water, except when removed from the home cage for experimental procedures.
In this model, the injection of formalin elicits a distinct biphasic behavioral profile characterized by the mouse licking the affected paw. Immediately after the injection, the mouse licks the paw for about 10 minutes. This corresponds to phase 1 (acute response) and is followed by a brief latency period where there is little behavioral activity. A more prolonged period of about 20-30 minutes of paw licking ensues which constitutes phase 2 (inflammatory).
Two hours after administration, formalin was injected sub-dermally (20 μL, 27 gauge needle) into the plantar surface of the right hind foot. The bevel of the needle was placed facing down toward the skin surface. […] The cumulative length of licking for each 2 minute period was recorded. […] Animals were euthanized following the conclusion of the experiment.
Area under the curve (AUC) determinations were made using the GraphPad Prism Version 3.03. Total AUC was calculated for both the dosed and control groups for both acute and inflammatory phases. The AUC of individual animals for each phase was also calculated and converted to a percentage of total AUC of control.

[2] = tested on: tactile allodynia in L5 SNL rats (von Frey withdrawal threshold); experiment: Lumbar 5 (L5) Spinal Nerve Ligation (Chung) Model of Neuropathic Pain, Studies A-D; format: in vivo, Sprague-Dawley rats; settings: for withdrawal thresholds: 2 hrs, 4 hrs and 6 hrs after oral administration
Description: The rat Chung model is an assay used in determining whether a compound is useful for the treatment of neuropathic pain (Kim and Chung, 1994; Chaplan et al., 1994). In this assay, injury to the sciatic nerve by loose ligation with chromic gut suture, tight ligation of the L5 spinal nerve with silk suture or partial tight ligation with silk suture each produces hypersensitivity to many stimulus modalities (e.g., touch, pressure, temperature) that lasts for weeks or months. Hypersensitivity produced by such injuries is reminiscent of allodynia and hyperalgesia observed in clinical conditions of neuropathic pain caused by mechanical nerve injury, diabetes and chemotherapy. This assay is predictive of analgesic, antiallodynic and/or antihyperalgesic effect of test compounds.
Test compound and controls were dissolved in the appropriate volume of 0.5% HPMC or 10% solutol in 0.5% hydoxypropyl methylcellulose (HPMC). HPMC served as the vehicle for preparation of gabapentin solutions used as the positive control. Solutions were prepared to provide the final dose in a volume of 2.5 mL/kg or 5 mL/kg p.o. for rats. Male, Sprague-Dawley rats from Harlan Industries (Indianapolis, Ind.), weighing 150 to 250 grams at the time of surgery, were used for L5 SNL studies.
Rats in the SNL studies were housed and tested in the same room. Animals were housed in micro-isolator cages in groups of four rats per cage or 5 mice per cage with corncob bedding and free access to food and water. The environment was maintained at a constant temperature of 21° C., with a 12-hour light/dark cycle. Rats undergoing L5 SNL surgery were placed into individual housing cages with alpha dry bedding and had access to enrichment food, food pellets and water ad libitum. Animals were allowed four to six weeks recovery from surgery prior to testing and were not tested beyond eight weeks post-surgery. For L5 SNL testing, only those animals that responded to less than 4 gr force were included in further testing and analysis, being randomized into treatment groups on the day of study. In all tests, the investigator performing the behavioral analysis was blinded to the treatment administered to any individual animal.
For L5 SNL surgery, rats were induced and maintained on isoflurane inhalation anesthesia. A 2-cm skin incision was made just left of midline over the dorsal aspect of the L4-S2 spinal segments, followed by separation of the paraspinal muscles from spinous processes. The transverse process of L6 was then carefully removed and the L5 spinal nerve was identified. The left L5 spinal nerve was then ligated tightly with 6-0 silk thread, the muscle was sutured with 4-0 vicryl, and the skin was closed with wound clips.
Behavioral testing was performed on L5SNL rats at a time between 3-6 weeks post-ligation. […] Tactile allodynia was quantified at 30 min, 1 hr, 2 hrs, 4 hrs, 6 hrs, 8 hrs and/or 24 hr post-dosing by recording the force at which the paw ipsilateral to the nerve ligation was withdrawn from the application of a series of calibrated von Frey filaments (0.4, 0.7, 1.2, 2.0, 3.6, 5.5, 8.5 and 15.1 g; Stoelting; Wood Dale, Ill.). Beginning at an intermediate stiffness (2.0 g), filaments were applied to the mid-plantar hind paw for approximately 5 seconds. A brisk paw withdrawal led to the presentation of the next lighter stimulus and the lack of a withdrawal response led to the presentation of the next stronger stimulus to determine the response threshold. A total of four responses after the first threshold detection were collected. The 50% withdrawal thresholds were interpolated by the method of Dixon (as described in Meert T F and Vermeirsch, H A, Pharmacol. Biochem. Behav.; 2005, 80(2), pp 309-326) and when response thresholds fell above or below the range of detection, respective values of 15.0 or 0.25 g were assigned. […]

[3] = tested on: Taxol®-induced degeneration of sciatic nerve and right hind paw; experiment: Taxol Induced Peripheral Neuropathy Model (pilot), histopathology; format: in vivo, Sprague-Dawley rats; settings: 100 mg/kg po daily + Taxol; Day 13
Procedure: The animals were housed in polycarbonate plastic cages, 2 animals per cage, at a temperature of 18-26° C., 30-70% humidity, 12-hour light/dark cycle, with food and water available ad libityum.
On days 1, 3, 5, and 7, the rats received an ip (intraperitoneal) injection of Taxol® (2 mg/kg).
On Day 13, the animals were euthanized by carbon dioxide asphyxiation. The sciatic nerve and right hind paw were excised and placed in 10% neutral buffered formalin. The harvested tissues were blocked, embedded in paraffin, sectioned and stained with hemotoxylin and eosin. The tissue was examined using light microscopy and scored by an evaluator blind to the treatment regimen. The tissue was ranked on a scale of 0 to 3 based on the degree and amount of axonal disruption observed in the section, with 0 being a normal appearance of the axon, 1 to 2 being a mild to moderate disruption of the axons and a 3 being a complete disruption and Wallerian degeneration of the axons (Cavaletti, G, Tredici, G, Braga, M, Tazzari, S. Experimental peripheral neuropathy induced in adult rats by repeated intraperitoneal administration of Taxol®. Exper Neurol 133:64-72,1995). Data were analyzed using one-way ANOVA and Dunnett's test, with statistical significance at p<0.05.

## NS(=O)(=O)NC[C@H]1COc2cc(Cl)ccc2O1 [Compound #8, (2S)-(−)-N-(6-Chloro-2,3-dihydro-benzo[1,4]dioxin-2-ylmethyl)-sulfamide]
[1]
  ED50: 101 mg/kg
[2]; Study A, 120 mg/kg oral, 1 hr
  % reversal (withdrawal threshold): 42.2±13.8%
[2]; Study A, 120 mg/kg oral, 4 hrs
  % reversal (withdrawal threshold): 45.4±12.2%
[2]; Study A, 240 mg/kg, 4 hr
  % change (withdrawal threshold): 65.6±21.1%
[2]; Study A
  withdrawal thresholds: significantly increased withdrawal thresholds
[2]; Study B, first administration (Day 1), 480 mg/kg, 4 hrs after dosing, three weeks after surgery
  reversal in tactile hypersensitivity, peak effect: 64.3±9.9%
[2]; Study B, first administration, other treatment groups (60, 120, 240 mg/kg)
  reversal in tactile hypersensitivity: No significant differences were observed
[2]; Study B, third and seventh day of daily dosing, 60-480 mg/kg
  reversal of tactile hypersensitivity: none of the treatment groups exhibited a significant reversal of tactile hypersensitivity
[2]; Study C, 100 mg/kg, 300 mg/kg or 560 mg/kg, p.o., 4 weeks after surgery
  effect on mechanical allodynia: did not show a statistically significant effect up to 6 hrs
[2]; Study D, 560 mg/kg p.o. in 10% solutol in HPMC, four weeks after surgery
  decrease in mechanical allodynia: showed a decrease in mechanical allodynia at 4 hrs and 6 hrs post dosing, but with a p=0.054
[3]
  degeneration in the sciatic nerve (histopathology): positive trend to decreased degeneration in the sciatic nerve, although the differences were not statistically significant
  severity of degeneration in the right hind paw (histopathology): no effect on the severity of Taxol®-induced degeneration in the right hind paw

## NCC1(CC(=O)O)CCCCC1 [gabapentin, reference compound]
[2]; Study A, 480 mg/kg, 2 hrs post-dosing, six weeks after surgery
  % reversal (withdrawal threshold): 73.2±14.7%
[2]; Study A, 480 mg/kg, 4 hrs post-dosing, six weeks after surgery, 480 mg/kg
  % reversal (withdrawal threshold): 73.7±16.6% and 73.4±15.2%
[2]; Study A
  withdrawal thresholds: significantly increased withdrawal thresholds
[2]; Study C, 560 mg/kg, 2 hrs post dosing
  % reversal of mechanical allodynia relative to baseline: 58.7%
[2]; Study C, 560 mg/kg, 4 hrs post dosing
  % reversal of mechanical allodynia relative to baseline: 86.4%
[2]; Study C, 560 mg/kg, 6 hrs post dosing
  decrease in mechanical allodynia relative to baseline: not at 6 hrs post dosing
